From patent US20220133884A1, “COMPOUNDS USEFUL AS ADJUVANTS” (MILLENNIUM PHARMACEUTICALS, INC., priority 2019, published 2022)

B1: OVA: chicken ovalbumin protein antigen, EndoFit Ovalbumin, InvivoGen (protein, UniProt P01012 2-386, looked up)
Ovalbumin: GSIGAASMEFCFDVFKELKVHHANENIFYCPIAIMSALAMVYLGAKDSTRTQINKVVRFDKLPGFGDSIEAQCGTSVNVHSSLRDILNQITKPNDVYSFSLASRLYAEERYPILPEYLQCVKELYRGGLEPINFQTAADQARELINSWVESQTNGIIRNVLQPSSVDSQTAMVLVNAIVFKGLWEKAFKDEDTQAMPFRVTEQESKPVQMMYQIGLFRVASMASEKMKILELPFASGTMSMLVLLPDEVSGLEQLESIINFEKLTEWTSSNVMEERKIKVYLPRMKMEEKYNLTSVLMAMGITDVFSSSANLSGISSAESLKISQAVHAAHAEINEAGREVVGSAEAGVDAASVSEEFRADHPFLFCIKHIATNAVLFFGRCVSP

Columns and labels:
[1] = test system: dendritic cells (CD11c+ cells); assay: Study 1: activation of dendritic cells in lymph nodes after subcutaneous injection (flow cytometry); type: in vivo, Balb/c mice; settings: ~18 hours post subcutaneous injection near brachial LNs, relative to vehicle treated mice
Procedure: (§1) Unless otherwise stated, immune cell profiling was performed using flow cytometry on a BD (Beckton Dickinson) LSRII Fortessa.
(§2) The goal of this study was to investigate the in vivo effects of Compound I-263a alone or in combination with a TLR9 agonist (CpG) with respect to the recruitment and activation of innate immune cells at regional draining lymph nodes (LNs). On day 0 in the evening, eight to ten week old female Balb/c mice (Jackson Labs, Bar Harbor, Me.) were injected subcutaneously bilaterally close to the two brachial LNs (50 μL each side) with one of the formulations shown in Table 1 (n=5 mice per group). On day 1 (˜18 hours post injection) the mice were euthanized. The inflamed brachial LNs as well as the distal non-inflamed inguinal LNs were harvested from each mouse individually. Single cell suspensions were generated by homogenizing the LNs on a 70μ cell strainer using 3 mL syringe plungers, followed by wash with FACS staining buffer (BD Biosciences, Cat #554657). The cell pellet was re-suspended in 100 μL of FACS buffer for staining on a 96-well U-bottom tissue culture plate (Corning). Each sample was stained using the flow cytometry panel (see Table 2 below) of antibodies followed by acquisition and analysis on BD LSRII Fortessa. For positive controls, 1 drop of ultracomp beads (Invitrogen, Cat #01-2222-42) were stained with 1 μL of the respective antibodies.

T cells and NK cells = assay: Study 1: early lymphocyte activation marker CD69 on T cells and NK cells in lymph nodes (flow cytometry); type: in vivo, Balb/c mice; settings: ~18 hours post subcutaneous injection, Compound I-263a 7.5 mg/kg, CpG 2.5 mg/kg
Procedure: as §1, §2

B16F10-OVA tumors = assay: Study 3: prophylactic vaccination and B16F10-OVA tumor challenge; type: in vivo, C57BL/6 mice; settings: SC pre-treatment Day -14 to Day -4, tumor challenge Day 0; Ovalbumin 100 ug QWx2, Compound I-263a 15 mg/kg BIWx2, poly (I:C) 50 ug BIWx2; FIG. 5A/5B
Procedure: The goal of this study was to evaluate the prophylactic effects of OVA+Compound 1-263a vaccination in mice challenged with tumors expressing the OVA antigen (B16F10-OVA). The B16F10-OVA cell line was generated in-house by stable integration of the chicken ovalbumin gene into the Rosa26 locus. Eight to ten-week-old female C57BL/6 mice (Jackson Labs, Bar Harbor, Me.) were injected with one of the formulations shown in Table 5 subcutaneously (SC) near the nape. All mice were subsequently challenged on Day 0 with 0.3e6 B16F10-OVA tumor cells/mouse subcutaneously (n=16 mice/group, except group 5 (ovalbumin+Compound 1-263a) for which n=15). Tumor growth was measured every 2-3 days using digital calipers and tumor volume was calculated as: L×W×(W/2).

Molecule	expression of marker CD86 on CD11c+ cells in the distal inguinal LNs ([1]; 7.5 mg/kg, FIG. 1b)	expression of marker CD40 on CD11c+ cells in the brachial LNs ([1]; Compound I-263a 7.5 mg/kg, CpG 2.5 mg/kg, FIG. 1a)	expression of marker CD86 on CD11c+ cells in the brachial LNs ([1]; Compound I-263a 7.5 mg/kg, CpG 2.5 mg/kg, FIG. 1b)	early lymphocyte activation marker CD69 on T cells in the brachial LNs (T cells and NK cells; FIG. 2a)	early lymphocyte activation marker CD69 on NK cells in the brachial LNs (T cells and NK cells; FIG. 2b)	growth of B16-F10 tumors expressing OVA (tumor protection) (B16F10-OVA tumors)
Cc1sc(C(=O)c2cncnc2N[C@@H]2C[C@H](COS(N)(=O)=O)[C@@H](O)C2)cc1[C@@H]1NCCc2ccc(Cl)cc21 [Compound I-263a, [(1R,2S,4R)-4-{[5-({4-[(1R)-7-chloro-1,2,3,4-tetrahydroisoquinolin-1-yl]-5-methyl-2-thienyl}carbonyl)pyrimidin-4-yl]amino}-2-hydroxycyclopentyl]methyl sulfamate]	but not in the distal inguinal LNs	increases	increases	changes in the early lymphocyte activation marker CD69 were observed	changes in the early lymphocyte activation marker CD69 were observed	did not confer tumor protection
B1	–	–	–	–	–	did not confer tumor protection
